Experiments:
Volasertib/BI6727 = compound: CC[C@@H]1C(=O)N(C)c2cnc(Nc3ccc(C(=O)N[C@H]4CC[C@H](N5CCN(CC6CC6)CC5)CC4)cc3OC)nc2N1C(C)C [Volasertib/BI6727]
[1] = compound: COc1ccc2c(c1)[C@]1(C[C@H]1c1ccc3c(/C=C/c4ccc(CN5C[C@@H](C)O[C@@H](C)C5)cc4)n[nH]c3c1)C(=O)N2
Luminespib/NVP-AUY922 = compound: CCNC(=O)c1noc(-c2cc(C(C)C)c(O)cc2O)c1-c1ccc(CN2CCOCC2)cc1 [Luminespib/NVP-AUY922]
Neratinib/HKI272 = compound: CCOc1cc2ncc(C#N)c(Nc3ccc(OCc4ccccn4)c(Cl)c3)c2cc1NC(=O)/C=C/CN(C)C [Neratinib/HKI272]
[2] = compound: CO[C@@H](C)Cn1c(=O)n(C)c2cnc3ccc(-c4cncc(C(C)(C)O)c4)cc3c21
R0-3306 = compound: C1=CC2=C(C=CC(=C2)C=C3C(=O)NC(=NCC4=CC=CS4)S3)N=C1 [R0-3306]
SHP099 = compound: CC1(CCN(CC1)C2=CN=C(C(=N2)N)C3=C(C(=CC=C3)Cl)Cl)N [SHP099]
[3] = compound: CCc1cnn2c(NCc3ccc[n+]([O-])c3)cc(N3CCCC[C@H]3CCO)nc12
THZ1 = compound: CN(C)C/C=C/C(=O)Nc1ccc(C(=O)Nc2cccc(Nc3ncc(Cl)c(-c4c[nH]c5ccccc45)n3)c2)cc1 [THZ1]
Vorinostat = compound: O=C(CCCCCCC(=O)Nc1ccccc1)NO [Vorinostat]
Olaparib/AZD2281 = compound: O=C(c1cc(Cc2n[nH]c(=O)c3ccccc23)ccc1F)N1CCN(C(=O)C2CC2)CC1 [Olaparib/AZD2281]
AZD7762 = compound: NC(=O)Nc1cc(-c2cccc(F)c2)sc1C(=O)N[C@H]1CCCNC1 [AZD7762]
Flavopiridol = compound: CN1CC[C@H](c2c(O)cc(O)c3c(=O)cc(-c4ccccc4Cl)oc23)[C@H](O)C1 [Flavopiridol]
Dasatinib = compound: Cc1nc(Nc2ncc(C(=O)Nc3c(C)cccc3Cl)s2)cc(N2CCN(CCO)CC2)n1 [Dasatinib]
Alpelisib/BYL719 = compound: Cc1nc(NC(=O)N2CCC[C@H]2C(N)=O)sc1-c1ccnc(C(C)(C)C(F)(F)F)c1 [Alpelisib/BYL719]
AZD5363 = compound: NC1(C(=O)N[C@@H](CCO)c2ccc(Cl)cc2)CCN(c2nc[nH]c3nccc2-3)CC1 [AZD5363]
LEE011/Ribociclib = compound: CN(C)C(=O)c1cc2cnc(Nc3ccc(N4CCNCC4)cn3)nc2n1C1CCCC1 [LEE011/Ribociclib]
Torin2 = compound: C1=CC(=CC(=C1)N2C(=O)C=CC3=CN=C4C=CC(=CC4=C32)C5=CN=C(C=C5)N)C(F)(F)F [Torin2]
Ipatasertib/GDC0068 = compound: CC(C)NC[C@@H](C(=O)N1CCN(c2ncnc3c2[C@H](C)C[C@H]3O)CC1)c1ccc(Cl)cc1 [Ipatasertib/GDC0068]
Doxorubicin = compound: COc1cccc2c1C(=O)c1c(O)c3c(c(O)c1C2=O)C[C@@](O)(C(=O)CO)C[C@@H]3O[C@H]1C[C@H](N)[C@H](O)[C@H](C)O1 [Doxorubicin]
Cabozantinib = compound: COc1cc2nccc(Oc3ccc(NC(=O)C4(C(=O)Nc5ccc(F)cc5)CC4)cc3)c2cc1OC [Cabozantinib]
AZD2014 = compound: CNC(=O)c1cccc(-c2ccc3c(N4CCOC[C@@H]4C)nc(N4CCOC[C@@H]4C)nc3n2)c1 [AZD2014]
[4] = compound: CCN1CCN(Cc2ccc(Nc3ncc(F)c(-c4cc(F)c5nc(C)n(C(C)C)c5c4)n3)nc2)CC1
[5] = compound: CCCCOc1c(C(=O)c2c(F)cc(C)cc2F)c[nH]c2nncc1-2
ABT-737 = compound: CN(C)CC[C@H](CSc1ccccc1)Nc1ccc(S(=O)(=O)NC(=O)c2ccc(N3CCN(Cc4ccccc4-c4ccc(Cl)cc4)CC3)cc2)cc1[N+](=O)[O-] [ABT-737]
[6] = compound: CC(=O)c1c(C)c2cnc(Nc3ccc(N4CCNCC4)cn3)nc2n(C2CCCC2)c1=O
[7] = compound: CC(=O)Nc1cccc(-n2c(=O)n(C3CC3)c(=O)c3c(Nc4ccc(I)cc4F)n(C)c(=O)c(C)c32)c1
[8] = compound: CCC1=CN=CN=C1N2CCN(CC2)CC3=NC4=C(N3)C=C(C=C4)C(F)(F)F
AZD1775 = compound: C=CCn1c(=O)c2cnc(Nc3ccc(N4CCN(C)CC4)cc3)nc2n1-c1cccc(C(C)(C)O)n1 [AZD1775]
THZ-P1-2 = compound: CN(C)C/C=C/C(=O)NC1=CC=C(C=C1)C(=O)NC2=CC=CC(=C2)NC3=NC=NC(=C3)C4=CNC5=CC=CC=C54 [THZ-P1-2]
BSJ-03-123 = compound: CC(=O)c1c(C)c2cnc(Nc3ccc(N4CCN(CCOCCOCCOCCNC(=O)COc5cccc6c5C(=O)N(C5CCC(=O)NC5=O)C6=O)CC4)cn3)nc2n(C2CCCC2)c1=O [BSJ-03-123]
Saracatinib/AZD0530 = compound: CN1CCN(CCOc2cc(OC3CCOCC3)c3c(Nc4c(Cl)ccc5c4OCO5)ncnc3c2)CC1 [Saracatinib/AZD0530]
Taselisib/GDC0032 = compound: Cc1nc(-c2cn3c(n2)-c2ccc(-c4cnn(C(C)(C)C(N)=O)c4)cc2OCC3)n(C(C)C)n1 [Taselisib/GDC0032]
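Also: breast cancer and non-malignant breast epithelial cell lines, Deep Dye Drop or Dye Drop imaging, nine half-log doses, GR normalized to time-zero plates and DMSO-only controls.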

| Cell Line | GR50, 72 h (Volasertib/BI6727) [µM] | GR50, 72 h [1] [µM] | GR50, 72 h (Luminespib/NVP-AUY922) [µM] | GR50, 72 h (Neratinib/HKI272) [µM] | GR50, 72 h [2] [µM] | GR50, 72 h (R0-3306) [µM] | GR50, 72 h (SHP099) [µM] | GR50, 72 h [3] [µM] | GR50, 72 h (THZ1) [µM] | GR50, 72 h (Vorinostat) [µM] | GR50, 72 h (Olaparib/AZD2281) [µM] | GR50, 72 h (AZD7762) [µM] | GR50, 72 h (Flavopiridol) [µM] | GR50, 72 h (Dasatinib) [µM] | GR50, 72 h (Alpelisib/BYL719) [µM] | GR50, 72 h (AZD5363) [µM] | GR50, 72 h (LEE011/Ribociclib) [µM] | GR50, 72 h (Torin2) [µM] | GR50, 72 h (Ipatasertib/GDC0068) [µM] | GR50, 72 h (Doxorubicin) [µM] | GR50, 72 h (Cabozantinib) [µM] | GR50, 72 h (AZD2014) [µM] | GR50, 72 h [4] [µM] | GR50, 72 h [5] [µM] | GR50, 72 h (ABT-737) [µM] | GR50, 72 h [6] [µM] | GR50, 72 h [7] [µM] | GR50, 72 h [8] [µM] | GR50, 72 h (AZD1775) [µM] | GR50, 72 h (THZ-P1-2) [µM] | GR50, 72 h (BSJ-03-123) [µM] | GR50, 72 h (Saracatinib/AZD0530) [µM] | GR50, 72 h (Taselisib/GDC0032) [µM] |
| --- | --- | --- | --- | --- | --- | --- | --- | --- | --- | --- | --- | --- | --- | --- | --- | --- | --- | --- | --- | --- | --- | --- | --- | --- | --- | --- | --- | --- | --- | --- | --- | --- | --- |
| CAL51 | 0.00591 | 0.00556 | 0.00639 | 2.25 | 0.0113 | 8.06 | > 10 | 0.0147 | 0.385 | 1.83 | 7.19 | 0.0446 | 0.2 | 0.0581 | 6.1 | > 10 | 3.72 | 0.0179 | 2.98 | 0.00858 | 7.77 | 0.163 | 0.113 | 3.95 | > 10 | 0.373 | > 1 | > 10 | 0.274 | > 10 | 4.36 | 1.85 | 0.134 |
| CAL120 | 0.00185 | 0.00365 | 0.00281 | 0.585 | 0.00177 | 8.5 | > 10 | 0.00989 | 0.0579 | 1.35 | 5.12 | 0.156 | 0.209 | 0.0496 | > 10 | > 10 | > 10 | 0.0105 | > 10 | 0.00944 | 7.34 | 0.184 | 0.247 | 2.2 | 2.15 | > 3.16 | 0.0468 | > 10 | 0.197 | 6.25 | 5.27 | > 10 | 2.53 |
| CAMA1 | 0.00782 | 0.00356 | 0.00885 | 2.83 | < 0.001 | 4.36 | > 10 | 0.0146 | 0.0336 | 0.884 | > 10 | 0.253 | 0.178 | > 10 | > 10 | 0.0498 | 0.0104 | 0.00918 | 0.341 | 0.00747 | 8.39 | < 0.001 | 0.00786 | < 0.001 | > 10 | 0.0742 | > 1 | > 10 | 5.45 | 3.39 | 0.00879 | > 10 | 1.77 |
| EFM19 | 0.0101 | 0.0156 | 0.021 | > 3.16 | 0.00381 | 6.14 | > 10 | 0.0283 | 0.383 | 2.66 | > 10 | 1.48 | 0.284 | 0.0184 | 0.282 | 1.63 | 1.71 | 0.0114 | 1.45 | 0.0513 | > 10 | 0.00131 | 0.025 | 0.119 | 8.35 | 0.525 | > 1 | > 10 | 3.9 | 6.33 | 1.23 | 3.5 | 0.00333 |
| EVSAT | 0.00932 | 0.00784 | 0.00716 | > 3.16 | 0.00155 | 5.54 | > 10 | 0.0263 | 0.0571 | 2.5 | > 10 | 1.42 | 0.369 | 0.166 | > 10 | 0.0128 | > 10 | 0.015 | 0.256 | 0.00911 | > 10 | 0.00617 | 1.25 | 1.45 | > 10 | > 3.16 | > 1 | > 10 | 3.96 | > 10 | 3.31 | 2.69 | 0.517 |
| HCC38 | 0.00822 | 0.00325 | 0.00714 | 3.15 | 0.00435 | 7.29 | > 10 | 0.0126 | 0.0239 | 0.96 | 8.42 | 0.00948 | 0.139 | 5.69 | > 10 | > 10 | 0.537 | 0.0105 | > 10 | 0.00955 | 7.6 | 0.452 | 0.0446 | 0.00391 | 0.998 | 0.0597 | 0.22 | > 10 | 0.00378 | 4.23 | 0.0453 | > 10 | 2.7 |
| HCC70 | 0.0066 | 0.00349 | 0.00765 | 0.16 | 0.00263 | 4.53 | > 10 | 0.0129 | 0.0148 | 0.413 | > 10 | 0.0412 | 0.0784 | 0.00964 | 4.51 | 0.0256 | > 10 | 0.00585 | 0.14 | 0.0108 | 1.54 | < 0.001 | 1.9 | 0.00336 | 2.78 | > 3.16 | 0.0019 | > 10 | < 0.001 | 3.18 | 4.15 | 0.0644 | 0.161 |

— the supplement of paper PMC9663587
